# Where two headings read alike, the source gives them in different places.
# Assays:
# Assay type in all cases: in vivo
# [1] = tested on: wheat glume blotch (Leptosphaeria nodorum); experiment: Efficacy test on wheat glume blotch, spray treatment and prevention test (Test Example 8); conditions: for pest or weed control at 5 ppm: single compound 5 ppm
# Experimental: An agent comprising the following compound listed in Table 2 (active ingredient A) and the following compound listed in Table 6, Table 11 or Table 15 (active ingredient B) as active ingredients, was prepared in accordance with the above Formulation Example. This agent was diluted with water to a predetermined concentration to obtain a test solution. Then, to seedlings of wheat (variety: Haruyutaka) at the 1-leaf stage, seeded in a pot with a diameter of 7 cm, with 5 seeds per pot, and grown for 7 days, the test solution was applied by a spray gun in an amount of 5 ml per pot, for treatment. One day after the treatment, a spore suspension (1×100,000 cfu/ml) of wheat glume blotch (Leptosphaeria nodorum) was spray-inoculated, and the pot was placed in a moist chamber set in temperature of 20° C. and humidity more than 95% RH for 48 hours. After placing the pot in a glass greenhouse for 7 days, the ratio of the formed lesion area occupying the inoculated leaves was measured, and the preventive value was calculated in accordance with the following formula. Preventive value=[1−(treated plot lesion area ratio/untreated plot lesion area ratio)]×100
# (§1) Further, from the preventive value for each agent concentration, synergy was calculated by using the Colby method (Colby S. R. 1976, Weeds 15, 20-22).
# [2] = tested on: cucumber gray mold fungus (Botrytis cinerea); experiment: Preventive test against gray mold on cucumber cotyledon leaves, spray treatment, preventive value and Colby expected value (Test Examples 1-4); conditions: single compound; for pest or weed control at 10 ppm / pest or weed control at 50 ppm / pest or weed control at 20 ppm: Botrytis cinerea, 72 h; for pest or weed control at 10 ppm: 10 ppm spray; for pest or weed control at 50 ppm: 50 ppm spray; for pest or weed control at 20 ppm: 20 ppm spray
# Experimental: Using the following compound listed in Table 2 (the active ingredient A) and the compound listed in Table 5 through Table 15 (active ingredient B), an agent was prepared in accordance with the above Formulation Example. This agent was diluted with water to a predetermined concentration to obtain a test solution. Then, cucumber (variety: Sagami-hanjiro) was planted in a plastic pot of 90 cm^3, and in the cotyledon stage, 5 ml of the obtained test solution, was sprayed by a spray gun and air-dried. Thereafter, the treated leaf was cut off and placed in a plastic container which filled approximately 0.5 cm in depth water. A suspension of conidia of cucumber gray mold fungus (Botrytis cinerea) and a dissolved PDA culture medium were mixed at a ratio of 1:1 (mass ratio), and the mixture was dropped to inoculate the treated leaf with 30 μl. After the inoculation, the plastic container was sealed and left at 20° C. for 3 days, the ratio of the formed lesion occupying the inoculated leaf was measured, and the preventive value was calculated in accordance with the following calculation formula. Preventive value=[1−(treated plot lesion area ratio/untreated plot lesion area ratio)]×100
# Further, from the preventive value at each agent concentration, synergy was calculated by using the Colby method (Colby S. R. 1976, Weeds 15, 20-22). The calculation method is as follows. E=X+Y−XY/100
# X: preventive value of A agent at x concentration
# Y: preventive value of B agent at y concentration
# E: theoretical value expected by treatment of the mixture of A agent and B agent.
# The obtained result is analyzed to be synergy if the observed value is larger than the expected value, to be antagonism if the expected value is larger than the observed value, and to be an additive effect if the observed value and the expected value are the same.
# Using the following compound listed in Table 2 (active ingredient A) and the following compound listed in Table 5 through Table 15 (active ingredient B) as active ingredients, a preventive test against gray mold was conducted in accordance with the method described in Test Example 1.
# Using the following compound listed in Table 2 (active ingredient A) and the following compound listed in Table 5 or Table 6 (active ingredient B) as active ingredients, a preventive test against gray mold was conducted in accordance with the method described in Test Example 1.
# Using the following compound listed in Table 2 (active ingredient A) and the following compound listed in Table 6 through Table 16 (active ingredient B) as active ingredients, a preventive test against gray mold was conducted in accordance with the method described in Test Example 1.
# [3] = tested on: cucumber downy mildew (Pseudoperenospora cubensis); experiment: Efficacy test on cucumber downy mildew, spray treatment and prevention test (Test Example 7); conditions: lesion area ratio
# Experimental: An agent comprising the following compound listed in Table 2 (active ingredient A) and the compound listed in Table 6 (C40: active ingredient B) as active ingredients, was prepared in accordance with the above Formulation Example. This agent was diluted with water to a predetermined concentration to obtain a test solution. Then, to seedlings of cucumber (variety: Sagami-hanjiro) at 1.5-leaf stage grown in a pot with a diameter of 7 cm, the test solution was applied by a spray gun in an amount of 10 ml per pot, for treatment. One day after the treatment, a spore suspension (2×100,000 cfu/ml) of cucumber downy mildew (Pseudoperenospora cubensis), was spray-inoculated, and the pot was placed in a moist chamber set in temperature of 20° C. and humidity more than 95% RH for 24 hours. After placing the pot in a glass greenhouse for 6 days, the ratio of the formed lesion area occupying the inoculated leaves was measured, and the preventive value was calculated in accordance with the following formula. Preventive value=[1−(treated plot lesion area ratio/untreated plot lesion area ratio)]×100
# as §1
# [4] = tested on: rice sheath blight fungus (Rhizoctonia solani); experiment: Efficacy test on rice sheath blight, spray treatment and prevention test (Test Examples 5-6); conditions: lesion height
# Experimental: An agent comprising the following compound listed in Table 2 (active ingredient A) and the compound listed in Table 6 (C17: active ingredient B) as active ingredients, was prepared in accordance with the above Formulation Example. The agent was diluted with water to a predetermined concentration to obtain a test solution. Then, in a plastic pot of 90 cm^3, rice (Nipponbare) was seeded by 5 grains in one place, and to the grown seedlings in 4 seedling phase, the test solution was applied by a spray gun in an amount of 5 ml per pot, for treatment.
# One day after the treatment, 1 g of mycelium flora of rice sheath blight fungus (Rhizoctonia solani) cultured in bran medium, was put by […] to a close-to-ground part of seedlings, and the pot was placed in a moist chamber set in temperature of 25° C. and humidity more than 95% RH for eight days. The height of the lesions which appeared in the highest position from the close-to-ground part (lesion height) was investigated, and the preventive value was calculated in accordance with the following formula. Preventive value=[1−(treated plot lesion height/untreated plot lesion height)]×100
# as §1
# Using the following compound listed in Table 2 (active ingredient A) and the compound listed in Table 6 (C17: active ingredient B) as active ingredients, a preventive test on rice sheath blight was conducted in accordance with the above Test Example 5.
# [5] = tested on: cucumber powdery mildew (Sphaerotheca cucurbitae); experiment: Efficacy test on cucumber powdery mildew, irrigation treatment (Test Example 11); conditions: cucumber (Sagami-hanjiro)
# Experimental: An agent comprising the following compound listed in Table 2 (active ingredient A) and the compound listed in Table 6 (C18: active ingredient B), was prepared in accordance with the above Formulation Example. This agent was diluted with water to a predetermined concentration to obtain a test solution. 5 ml of the test solution was irrigated by a pipette to the close-to-ground part of cucumber seedlings at the 1 leaf stage (variety: Sagami-hanjiro), grown in a styrol cup with a diameter of 10 cm, and next day, the seedlings were transplanted to the to 4 cun pots. Then, after cultivation for 7 days in a glass greenhouse, to the first true leaf of the cucumber, a spore suspension (100,000 cfu/ml) of cucumber powdery mildew (Sphaerotheca cucurbitae) was inoculated by spraying. After 10 days in a glass greenhouse, the ratio of the formed lesion area occupying the inoculated leaves was measured, and the preventive value was calculated in accordance with the following formula. Preventive value=[1−(treated plot lesion area ratio/untreated plot lesion area ratio)]×100
# (§2) Further, from the preventive value at each agent concentration, synergy was calculated by using the Colby method (Colby S. R. 1976, Weeds 15, 20-22).
# [6] = tested on: wheat glume blotch (Leptosphaeria nodorum); experiment: Efficacy test on wheat glume blotch, seed treatment (Test Example 9); conditions: single compound
# Experimental: An agent comprising the following compound listed in Table 2 (active ingredient A) and the compound listed in Table 11 (H35: active ingredient B) as active ingredients, was prepared in accordance with the above Formulation Example. This agent was diluted with water to a predetermined concentration to obtain a test solution. A predetermined amount of the test solution was put in a glass bottle of 5 ml, and 0.5 g (approximately 15 grains) of wheat seeds (variety: Haruyutaka) were added, stirred and air-dried. In each pot with a diameter of 7 cm having soil put therein, 3 grains were seeded and grown for 14 days. To seedlings of the wheat (variety: Haruyutaka) grown to a 1-leaf stage, a spore suspension (100,000 cfu/ml) of wheat glume blotch (Leptosphaeria nodorum) was spray-inoculated, and the pot was placed in a moist chamber set in temperature of 20° C. and humidity more than 95% RH for 48 hours. After placing the pot for 7 days in a glass greenhouse, the ratio of the formed lesion area occupying the inoculated leaves was measured, and the preventive value was calculated in accordance with the following formula. Preventive value=[1−(treated plot lesion area ratio/untreated plot lesion area ratio)]×100
# as §2
# [7] = tested on: wheat powdery mildew (Blumeria graminis); experiment: Efficacy test on wheat powdery mildew, seed treatment (Test Example 10); conditions: wheat (Norin 61)
# Experimental: An agent comprising the following compound listed in Table 2 (active ingredient A) and the compound listed in Table 11 (H35: active ingredient B) as active ingredients, was prepared in accordance with the above Formulation Example. This agent was diluted with water to a predetermined concentration to obtain a test solution. A predetermined amount of test solution was put in a glass bottle of 5 ml, and 0.5 g (approximately 15 grains) of wheat seeds (variety: Norin 61) were added, stirred and air-dried. In each pot with a diameter of 7 cm and having soil put therein, 3 grains were seeded and grown for 14 days. To the wheat seedlings grown to the 1-leaf stage, a spore suspension (100,000 cfu/ml) of wheat powdery mildew (Blumeria graminis) was spray-inoculated. After placing the pot in a glass greenhouse for 10 days, the ratio of the formed lesion area occupying the inoculated leaves was measured, and the preventive value was calculated in accordance with the following formula. Preventive value=[1−(treated plot lesion area ratio/untreated plot lesion area ratio)]×100
# as §2
# [8] = Parastagonospora nodorum, single compound 50 ppm, spray, lesion area ratio, read-out: Preventive value
# [9] = Test Example 4, read-out: Preventive value
# [10] = Test Example 1, read-out: Preventive value
# [11] = Test Example 2, read-out: Preventive value
# [12] = Parastagonospora nodorum, spray, lesion area ratio, read-out: Preventive value
smiles,measurement,setting,value
"CON=C(C(=O)OC)c1ccccc1CON=C(C)c1cccc(C(F)(F)F)c1 [C39, trifloxystrobin, reference compound]",pest or weed control at 50 ppm,[1]; [8],70%
same,pest or weed control at 10 ppm,[2]; [9],40%
"Cc1c(Br)c2ccc(F)cc2n1S(=O)(=O)c1ncn(S(=O)(=O)N(C)C)n1 [C40, amisulbrom]",Preventive value,"[2]; Test Example 1, 100 ppm spray",0
same,Preventive value,"[2]; Test Example 2, 100 ppm spray",0
same,Preventive value,[3]; single compound 0.5 ppm,75
"Cc1nc(C(F)(F)F)c(C(=O)Nc2c(Br)cc(OC(F)(F)F)cc2Br)s1 [Compound No. C17, thifluzamide, reference compound]",Preventive value,"[4]; Test Example 5, single compound 5 ppm",69
same,Preventive value,"[4]; Test Example 6, single compound 5 ppm",75
same,pest or weed control at 50 ppm,[2]; [10],20%
same,pest or weed control at 50 ppm,[2]; [11],25%
"CO/C=C(/C(=O)OC)c1ccccc1Oc1cc(Oc2ccccc2C#N)ncn1 [Compound No. C18, azoxystrobin, reference compound]",Preventive value,"[1]; single compound 1 ppm, spray, lesion area ratio",65
same,Preventive value,[5]; concentration 6.3 ppm,50
same,Preventive value,"[2]; Test Example 1, 3 ppm spray",30
same,Preventive value,"[2]; Test Example 2, 3 ppm spray",28
"OC(Cc1ccccc1Cl)(Cn1nc[nH]c1=S)C1(Cl)CC1 (stereo not drawn) [Compound No. H31, prothioconazole, reference compound]",pest or weed control at 50 ppm,[1]; [8],30%
same,pest or weed control at 10 ppm,[2]; [9],50%
"CC(C)(C)C(O)(CCc1ccc(Cl)cc1)Cn1cncn1 (stereo not drawn) [Compound No. H35, tebuconazole, reference compound]",pest or weed control at 5 ppm,[1]; [12],45%
same,Preventive value,[6]; processing amount 1 mg/1 g seed,60
same,Preventive value,[6]; processing amount 5 mg/1 g seed,75
same,Preventive value,[7]; processing amount 0.025 mg/1 g seed,80
same,Preventive value,[7]; processing amount 0.1 mg/1 g seed,95
same,pest or weed control at 20 ppm,[2]; Test Example 1,45%
same,pest or weed control at 20 ppm,[2]; Test Example 2,50%
"N#CC(CCc1ccc(Cl)cc1)(Cn1cncn1)c1ccccc1 (stereo not drawn) [H13, fenbuconazole]",pest or weed control at 25 ppm,"[1]; Parastagonospora nodorum, single compound 25 ppm, spray, lesion area ratio, read-out: Preventive value",50%
same,pest or weed control at 50 ppm,[2]; [10],63%
same,pest or weed control at 50 ppm,[2]; [11],60%
"CC1(C)CCC(Cc2ccc(Cl)cc2)C1(O)Cn1cncn1 (stereo not drawn) [H23, metconazole, reference compound]",pest or weed control at 5 ppm,[1]; [12],45%
same,pest or weed control at 10 ppm,[2]; [9],60%
"CCCCC(C#N)(Cn1cncn1)c1ccc(Cl)cc1 (stereo not drawn) [H24, myclobutanil, reference compound]",pest or weed control at 100 ppm,"[1]; Parastagonospora nodorum, single compound 100 ppm, spray, lesion area ratio, read-out: Preventive value",70%
same,pest or weed control at 10 ppm,[2]; [9],60%
"CCCN(CCOc1c(Cl)cc(Cl)cc1Cl)C(=O)n1ccnc1 [H29, prochloraz, reference compound]",pest or weed control at 50 ppm,"[1]; Parastagonospora nodorum, read-out: Preventive value",45%
same,pest or weed control at 10 ppm,"[2]; read-out: Preventive value, Test Example 4",50%
"N#Cc1c(Cl)c(Cl)c(Cl)c(C#N)c1Cl [L25, chlorothalonil]",pest or weed control at 50 ppm,[1]; [8],50%
same,pest or weed control at 50 ppm,[2]; [10],50%
same,pest or weed control at 50 ppm,[2]; [11],55%
CC(C)ON=C(CNC(=O)c1ccccc1C(F)(F)F)c1ncc(Cl)c(S(C)(=O)=O)c1Cl [compound 32],Preventive value,"[1]; single compound 3 ppm, spray, lesion area ratio",60
same,Preventive value,"[1]; single compound 10 ppm, spray, lesion area ratio",85
same,Preventive value,[5]; concentration 500 ppm,30
same,Preventive value,"[4]; Test Example 6, single compound 250 ppm",6
same,Preventive value,"[2]; Test Example 2, 1 ppm spray",94
same,Preventive value,"[2]; Test Example 3, 1 ppm spray",90
same,Preventive value,"[2]; Test Example 4, 1 ppm spray",80
same,Preventive value,[3]; single compound 250 ppm,0
